Measurements as given in EP1561465A2, “Methods of use of fluoroquinolone compounds against bacteria” (LG Life Sciences, Ltd., priority 1999, dated 2001).
Values after ≈ are worked out from the molar mass of the structure shown. Where two headings read alike, the source gives them in different places.

Columns and labels:
Assay in all cases: MIC by NCCLS reference broth microdilution, 450 respiratory tract pathogens
Type in all cases: cell-based
Klebsiella pneumoniae = settings: for MIC50 / MIC90: Klebsiella pneumoniae
Streptococcus pneumoniae = settings: Streptococcus pneumoniae
Haemophilus influenzae = test system: Haemophilus influenzae
Moraxella catarrhalis = test system: Moraxella catarrhalis
Staphylococcus aureus = test system: Staphylococcus aureus
Streptococcus pyogenes = settings: Streptococcus pyogenes
[1] = extended spectrum β-lactamase negative (n = 30)
[2] = extended spectrum β-lactamase positive (n = 20)
[3] = Streptococcus pneumoniae (n = 100)
[4] = erythromycin resistant M phenotype (n = 16)
[5] = erythromycin resistant MLSB phenotype (n = 16)
[6] = penicillin intermediate (n = 16)
[7] = penicillin susceptible (n = 20)
[8] = Haemophilus influenzae, Haemophilus influenzae (n = 100)
[9] = Haemophilus influenzae, β-lactamase negative (n = 80)
[10] = Haemophilus influenzae, β-lactamase positive (n = 20)
[11] = β-lactamase positive and erythromycin resistant (n = 10)
[12] = Streptococcus pyogenes (n = 100)
[13] = erythromycin resistant C phenotype [MLSB] (n = 20)
[14] = erythromycin resistant I phenotype [MLSB] (n = 20)
[15] = erythromycin resistant M phenotype (n = 20)

NC1CCN(c2c(F)cc3c(=O)c(C(=O)O)cn(C4CC4)c3c2Cl)C1 (stereo not shown) [Clinafloxacin, clinafloxacin]
MIC Range (Klebsiella pneumoniae; Klebsiella pneumoniae (n = 50)): ≤0.0075 to 1 µg/mL | MIC50 (Klebsiella pneumoniae; Klebsiella pneumoniae (n = 50)): 0.015 µg/mL (≈ 0.041 µM) | MIC90 (Klebsiella pneumoniae; Klebsiella pneumoniae (n = 50)): 1 µg/mL (≈ 2.73 µM) | MIC50 (Klebsiella pneumoniae; [1]): ≤ 0.0075 µg/mL | MIC90 (Klebsiella pneumoniae; [1]): 0.015 µg/mL (≈ 0.041 µM) | MIC50 (Klebsiella pneumoniae; [2]): ≤ 0.0075 µg/mL | MIC90 (Klebsiella pneumoniae; [2]): 1 µg/mL (≈ 2.73 µM) | MIC Range (Klebsiella pneumoniae; [1]): ≤0.0075 to 0.12 µg/mL | MIC Range (Klebsiella pneumoniae; [2]): ≤0.0075 to 1 µg/mL | MIC (Streptococcus pneumoniae; [3]): 0.03 to 0.25 µg/mL (≈ 0.082 to 0.683 µM) | MIC50 (Streptococcus pneumoniae; [3]): 0.06 µg/mL (≈ 0.164 µM) | MIC90 (Streptococcus pneumoniae; [3]): 0.12 µg/mL (≈ 0.328 µM) | MIC (Streptococcus pneumoniae; [4]): 0.03 to 0.12 µg/mL (≈ 0.082 to 0.328 µM) | MIC50 (Streptococcus pneumoniae; [4]): 0.06 µg/mL (≈ 0.164 µM) | MIC90 (Streptococcus pneumoniae; [4]): 0.12 µg/mL (≈ 0.328 µM) | MIC (Streptococcus pneumoniae; [5]): 0.03 to 0.12 µg/mL (≈ 0.082 to 0.328 µM) | MIC50 (Streptococcus pneumoniae; [5]): 0.06 µg/mL (≈ 0.164 µM) | MIC90 (Streptococcus pneumoniae; [5]): 0.12 µg/mL (≈ 0.328 µM) | MIC (Streptococcus pneumoniae; multi-drug resistant (n = 16)): 0.06 to 0.12 µg/mL (≈ 0.164 to 0.328 µM) | MIC50 (Streptococcus pneumoniae; multi-drug resistant (n = 16)): 0.12 µg/mL (≈ 0.328 µM) | MIC90 (Streptococcus pneumoniae; multi-drug resistant (n = 16)): 0.12 µg/mL (≈ 0.328 µM) | MIC (Streptococcus pneumoniae; [6]): 0.06 to 0.12 µg/mL (≈ 0.164 to 0.328 µM) | MIC50 (Streptococcus pneumoniae; [6]): 0.12 µg/mL (≈ 0.328 µM) | MIC90 (Streptococcus pneumoniae; [6]): 0.12 µg/mL (≈ 0.328 µM) | MIC (Streptococcus pneumoniae; penicillin resistant (n = 18)): 0.06 to 0.25 µg/mL (≈ 0.164 to 0.683 µM) | MIC50 (Streptococcus pneumoniae; penicillin resistant (n = 18)): 0.12 µg/mL (≈ 0.328 µM) | MIC90 (Streptococcus pneumoniae; penicillin resistant (n = 18)): 0.25 µg/mL (≈ 0.683 µM) | MIC (Streptococcus pneumoniae; [7]): 0.015 to 0.12 µg/mL (≈ 0.041 to 0.328 µM) | MIC50 (Streptococcus pneumoniae; [7]): 0.06 µg/mL (≈ 0.164 µM) | MIC90 (Streptococcus pneumoniae; [7]): 0.12 µg/mL (≈ 0.328 µM) | MIC90 (Haemophilus influenzae; Haemophilus influenzae (n = 100)): ≤0.00075 µg/mL | MIC (Haemophilus influenzae; [8]): 0.0075 to 0.06 µg/mL (≈ 0.0205 to 0.164 µM) | MIC50 (Haemophilus influenzae; [8]): ≤ 0.00075 µg/mL | MIC90 (Haemophilus influenzae; Haemophilus influenzae, Haemophilus influenzae (n = 100), read-out: MIC90): ≤ 0.00075 µg/mL | MIC (Haemophilus influenzae; [9]): 0.0075 to 0.06 µg/mL (≈ 0.0205 to 0.164 µM) | MIC50 (Haemophilus influenzae; [9]): ≤ 0.0075 µg/mL | MIC90 (Haemophilus influenzae; Haemophilus influenzae, β-lactamase negative (n = 80), read-out: MIC90): ≤ 0.0075 µg/mL | MIC (Haemophilus influenzae; [10]): 0.0075 to 0.25 µg/mL (≈ 0.0205 to 0.683 µM) | MIC50 (Haemophilus influenzae; [10]): ≤ 0.0075 µg/mL | MIC90 (Haemophilus influenzae; Haemophilus influenzae, β-lactamase positive (n = 20), read-out: MIC90): ≤ 0.0075 µg/mL | MIC (Moraxella catarrhalis; Moraxella catarrhalis (n = 50)): 0.00375 to 0.015 µg/mL (≈ 0.0103 to 0.041 µM) | MIC50 (Moraxella catarrhalis; Moraxella catarrhalis (n = 50)): ≤ 0.00375 µg/mL | MIC90 (Moraxella catarrhalis; Moraxella catarrhalis (n = 50)): 0.015 µg/mL (≈ 0.041 µM) | MIC (Moraxella catarrhalis; β-lactamase negative (n = 13)): 0.00375 to 0.015 µg/mL (≈ 0.0103 to 0.041 µM) | MIC50 (Moraxella catarrhalis; β-lactamase negative (n = 13)): ≤ 0.00375 µg/mL | MIC90 (Moraxella catarrhalis; β-lactamase negative (n = 13)): 0.015 µg/mL (≈ 0.041 µM) | MIC (Moraxella catarrhalis; β-lactamase positive (n = 37)): 0.00375 to 0.015 µg/mL (≈ 0.0103 to 0.041 µM) | MIC50 (Moraxella catarrhalis; β-lactamase positive (n = 37)): ≤ 0.00375 µg/mL | MIC90 (Moraxella catarrhalis; β-lactamase positive (n = 37)): 0.015 µg/mL (≈ 0.041 µM) | MIC (Staphylococcus aureus; Staphylococcus aureus (n = 50)): 0.06 to 0.25 µg/mL (≈ 0.164 to 0.683 µM) | MIC50 (Staphylococcus aureus; Staphylococcus aureus (n = 50)): 0.12 µg/mL (≈ 0.328 µM) | MIC90 (Staphylococcus aureus; Staphylococcus aureus (n = 50)): 0.25 µg/mL (≈ 0.683 µM) | MIC (Staphylococcus aureus; β-lactamase negative (n = 20)): 0.06 to 0.25 µg/mL (≈ 0.164 to 0.683 µM) | MIC50 (Staphylococcus aureus; β-lactamase negative (n = 20)): 0.12 µg/mL (≈ 0.328 µM) | MIC90 (Staphylococcus aureus; β-lactamase negative (n = 20)): 0.25 µg/mL (≈ 0.683 µM) | MIC (Staphylococcus aureus; β-lactamase positive (n = 20)): 0.06 to 0.25 µg/mL (≈ 0.164 to 0.683 µM) | MIC50 (Staphylococcus aureus; β-lactamase positive (n = 20)): 0.12 µg/mL (≈ 0.328 µM) | MIC90 (Staphylococcus aureus; β-lactamase positive (n = 20)): 0.25 µg/mL (≈ 0.683 µM) | MIC (Staphylococcus aureus; [11]): 0.06 to 0.25 µg/mL (≈ 0.164 to 0.683 µM) | MIC50 (Staphylococcus aureus; [11]): 0.12 µg/mL (≈ 0.328 µM) | MIC90 (Staphylococcus aureus; [11]): 0.25 µg/mL (≈ 0.683 µM) | MIC (Streptococcus pyogenes; [12]): 0.015 to 0.12 µg/mL (≈ 0.041 to 0.328 µM) | MIC50 (Streptococcus pyogenes; [12]): 0.06 µg/mL (≈ 0.164 µM) | MIC90 (Streptococcus pyogenes; [12]): 0.06 µg/mL (≈ 0.164 µM) | MIC (Streptococcus pyogenes; [13]): 0.03 to 0.12 µg/mL (≈ 0.082 to 0.328 µM) | MIC50 (Streptococcus pyogenes; [13]): 0.06 µg/mL (≈ 0.164 µM) | MIC90 (Streptococcus pyogenes; [13]): 0.12 µg/mL (≈ 0.328 µM) | MIC (Streptococcus pyogenes; [14]): 0.03 to 0.06 µg/mL (≈ 0.082 to 0.164 µM) | MIC50 (Streptococcus pyogenes; [14]): 0.06 µg/mL (≈ 0.164 µM) | MIC90 (Streptococcus pyogenes; [14]): 0.06 µg/mL (≈ 0.164 µM) | MIC (Streptococcus pyogenes; [15]): 0.015 to 0.06 µg/mL (≈ 0.041 to 0.164 µM) | MIC50 (Streptococcus pyogenes; [15]): 0.03 µg/mL (≈ 0.082 µM) | MIC90 (Streptococcus pyogenes; [15]): 0.06 µg/mL (≈ 0.164 µM) | MIC (Streptococcus pyogenes; fully susceptible (n = 20)): 0.03 to 0.12 µg/mL (≈ 0.082 to 0.328 µM) | MIC50 (Streptococcus pyogenes; fully susceptible (n = 20)): 0.03 µg/mL (≈ 0.082 µM) | MIC90 (Streptococcus pyogenes; fully susceptible (n = 20)): 0.06 µg/mL (≈ 0.164 µM) | MIC (Streptococcus pyogenes; multi-drug resistant (n = 20)): 0.03 to 0.06 µg/mL (≈ 0.082 to 0.164 µM) | MIC50 (Streptococcus pyogenes; multi-drug resistant (n = 20)): 0.03 µg/mL (≈ 0.082 µM) | MIC90 (Streptococcus pyogenes; multi-drug resistant (n = 20)): 0.06 µg/mL (≈ 0.164 µM)
